# Assay results taken from patent publication US7129246B2, “N-adamantlmethyl derivatives and intermediates as pharmaceutical compositions and processes for their preparation” (AstraZeneca AB, priority 2001, dated 2006).
# Counter-ions that a name gives are not always drawn.
# Experiments:
# P2X7 receptor = molecular target: T1, P2X7 receptor (Homo sapiens, UniProt Q99572); experiment: P2X7 receptor antagonist test: bbATP-induced ethidium bromide fluorescence in THP-1 cells; assay type: cell-based; details: bbATP agonist, 37° C. for one hour, read-out: pIC50 (negative logarithm of the concentration of test compound necessary to reduce the bbATP agonist activity by 50%) (converted)
# T1 construct: 200 μl of a suspension of THP-1 cells; endogenous in cells; host or cells: THP-1 cells
# T1 sequence (Q99572 1-595): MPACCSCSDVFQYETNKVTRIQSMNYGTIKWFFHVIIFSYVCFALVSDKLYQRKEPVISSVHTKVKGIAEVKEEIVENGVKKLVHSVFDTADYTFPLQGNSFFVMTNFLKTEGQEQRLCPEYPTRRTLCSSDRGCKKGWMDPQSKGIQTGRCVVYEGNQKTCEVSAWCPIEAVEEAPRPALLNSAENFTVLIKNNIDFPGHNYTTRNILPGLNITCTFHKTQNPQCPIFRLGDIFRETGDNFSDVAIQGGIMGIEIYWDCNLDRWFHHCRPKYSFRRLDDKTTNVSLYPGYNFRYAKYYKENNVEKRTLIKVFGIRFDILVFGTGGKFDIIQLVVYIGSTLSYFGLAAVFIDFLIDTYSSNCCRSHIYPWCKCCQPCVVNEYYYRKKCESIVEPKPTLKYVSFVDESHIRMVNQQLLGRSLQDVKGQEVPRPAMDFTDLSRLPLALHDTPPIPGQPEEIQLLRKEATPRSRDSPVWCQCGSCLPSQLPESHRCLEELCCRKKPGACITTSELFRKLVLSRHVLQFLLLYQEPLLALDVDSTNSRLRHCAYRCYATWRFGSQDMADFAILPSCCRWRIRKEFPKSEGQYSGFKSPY
# Text: Certain compounds such as benzoylbenzoyl adenosine triphosphate (bbATP) are known to be agonists of the P2X7 receptor, effecting the formation of pores in the plasma membrane (Drug Development Research (1996), 37(3) p. 126). Consequently, when the receptor is activated using bbATP in the presence of ethidium bromide (a fluorescent DNA probe), an increase in the fluorescence of intracellular DNA-bound ethidium bromide is observed. The increase in fluorescence can be used as a measure of P2X7 receptor activation and therefore to quantify the effect of a compound on the P2X7 receptor.
# In this manner, each of the title compounds of the Examples was tested for antagonist activity at the P2X7 receptor. Thus, the test was performed in 96-well flat bottomed microtitre plates, the wells being filled with 250 μl of test solution comprising 200 μl of a suspension of THP-1 cells (2.5×10^6 cells/ml) containing 10^−4M ethidium bromide, 25 μl of a high potassium buffer solution containing 10^−5M bbATP, and 25 μl of the high potassium buffer solution containing 3×10^−5M test compound. The plate was covered with a plastics sheet and incubated at 37° C. for one hour. The plate was then read in a Perkin-Elmer fluorescent plate reader, excitation 520 nm, emission 595 nm, slit widths: Ex 15 nm, Em 20 nm. […]
SMILES,melting point,IC50 (P2X7 receptor)
"NCCCc1cc(C(=O)NCC23CC4CC(CC(C4)C2)C3)c(Cl)cn1 (as salt: hydrochloride) [Example 6, N-(1-Adamantylmethyl)-2-(3-aminopropyl)-5-chloroisonicotinamide hydrochloride]",150 °C (dec.),
"CCNCCCc1cc(C(=O)NCC23CC4CC(CC(C4)C2)C3)c(Cl)cn1 (as salt: hydrochloride) [Example 7, N-(1-Adamantylmethyl)-5-chloro-2-[3-(ethylamino)propyl]isonicotinamide hydrochloride]",206 to 208 °C (dec.),
"C[C@H](CO)NCCCc1cc(C(=O)NCC23CC4CC(CC(C4)C2)C3)c(Cl)cn1 (as salt: hydrochloride) [Example 9, N-(1-Adamantylmethyl)-5-chloro-2-(3-{[(1R)-2-hydroxy-1-methylethyl]amino}propyl)isonicotinamide, dihydrochloride]",205 to 208 °C,
"C[C@@H](CO)NCCCc1cc(C(=O)NCC23CC4CC(CC(C4)C2)C3)c(Cl)cn1 (as salt: hydrochloride) [Example 10, N-(1-Adamantylmethyl)-5-chloro-2-(3-{[(1S)-2-hydroxy-1-methylethyl]amino}propyl)isonicotinamide, dihydrochloride]",205 to 208 °C,
"O=C(NCC12CC3CC(CC(C3)C1)C2)c1cc(CCCNCCO)ncc1Cl (as salt: hydrochloride) [Example 11, N-(1-Adamantylmethyl)5-chloro-2-{3-[(2-hydroxyethyl)amino]propyl}-isonicotinamide hydrochloride]",204 to 205 °C (dec.),
"O=C(NCC12CC3CC(CC(C3)C1)C2)c1cc(CCCNC[C@@H](O)CO)ncc1Cl (as salt: hydrochloride) [Example 16, N-(1-Adamantylmethyl)-5-chloro-2-(3-{[(2R)-2,3-dihydroxypropyl]amino}propyl)isonicotinamide, dihydrochloride]",217 to 219 °C,
"CC(C)(O)CNCCCc1cc(C(=O)NCC23CC4CC(CC(C4)C2)C3)c(Cl)cn1 (as salt: hydrochloride) [Example 19, N-(1-Adamantylmethyl)-5-chloro-2-{3-[(2-hydroxy-2-methylpropyl)amino]propyl}isonicotinamide dihydrochloride]",236 to 238 °C,
"CNCCNCCCc1cc(C(=O)NCC23CC4CC(CC(C4)C2)C3)c(Cl)cn1 (as salt: hydrochloride) [Example 21, N-(1-Adamantylmethyl)-5-chloro-2-(3-{[2-(methylamino)ethyl]amino}propyl)isonicotinamide dihydrochloride]",216 to 219 °C,
"O=C(NCC12CC3CC(CC(C3)C1)C2)c1cc(CCCNCCNCCO)ncc1Cl (as salt: hydrochloride) [Example 23, N-(1-Adamantylmethyl)-5-chloro-2-[3-({2-[(2-hydroxyethyl)amino]ethyl}amino)propyl]isonicotinamide dihydrochloride]",231 to 233 °C,
"O=C(NCC12CC3CC(CC(C3)C1)C2)c1cc(CCCNC(CO)CO)ncc1Cl (as salt: hydrochloride) [Example 25, N-(1-Adamantylmethyl)-5-chloro-2-(3-{[2-hydroxy-1-(hydroxymethyl)ethyl]amino}propyl)isonicotinamide dihydrochloride]",201 to 203 °C,
"CN(CCO)CCCc1cc(C(=O)NCC23CC4CC(CC(C4)C2)C3)c(Cl)cn1 (as salt: hydrochloride) [Example 26, N-(1-Adamantylmethyl)-5chloro-2-{3-[(2-hydroxyethyl)(methyl)amino]propyl}isonicotinamide dihydrochloride]",206 to 208 °C,
"C[C@@H](O)CNCCCc1cc(C(=O)NCC23CC4CC(CC(C4)C2)C3)c(Cl)cn1 (as salt: hydrochloride) [Example 28, N-(1-Adamantylmethyl)-5-chloro-2-(3-{[(2R)-2-hydroxypropyl]amino}propyl)isonicotinamide, dihydrochloride]",224 to 226 °C,
"CNCCCNCc1cc(C(=O)NCC23CC4CC(CC(C4)C2)C3)c(Cl)cn1 (as salt: hydrochloride) [Example 29, N-(1-Adamantylmethyl)-5chloro-2-({[3-(methylamino)propyl]amino}methyl)isonicotinamide dihydrochloride]",285 to 287 °C,
"O=C(NCC12CC3CC(CC(C3)C1)C2)c1cc(CNCCNCCO)ncc1Cl (as salt: hydrochloride) [Example 30, N-(1-Adamantylmethyl)-5-chloro-2-[({2-[(2-hydroxyethyl)amino]ethyl}amino)methyl]isonicotinamide dihydrochloride]",289 to 292 °C,
"CNCCNCc1cc(C(=O)NCC23CC4CC(CC(C4)C2)C3)c(Cl)cn1 (as salt: hydrochloride) [Example 31, N-(1-Adamantylmethyl)-5-chloro-2-({[2-(methylamino)ethyl]amino}methyl)isonicotinamide dihydrochloride]",259 to 262 °C,
"O=C(NCC12CC3CC(CC(C3)C1)C2)c1cc(CCNCCO)ncc1Cl (as salt: hydrochloride) [Example 32, N-(1-Adamantylmethyl)-5-chloro-2-{3-[(2-hydroxyethyl)amino]ethyl}isonicotinamide dihydrochloride]",242 to 244 °C,
"O=C(NCC12CC3CC(CC(C3)C1)C2)c1cc(CCNCCCO)ncc1Cl (as salt: hydrochloride) [Example 33, N-(1-Adamantylmethyl)-5-chloro-2-{3-[(3-hydroxypropyl)amino]ethyl}isonicotinamide dihydrochloride]",240 to 242 °C,
"CNCCCc1cc(C(=O)NCC23CC4CC(CC(C4)C2)C3)c(Cl)cn1 (as salt: hydrochloride) [Example 34, N-(1-Adamantylmethyl)-5-chloro2-[3-(methylamino)propyl]isonicotinamide hydrochloride]",210 to 212 °C,
"CNCCCNCCCc1cc(C(=O)NCC23CC4CC(CC(C4)C2)C3)c(Cl)cn1 (as salt: trifluoroacetate) [Example 22, N-(1-Adamantylmethyl)-5-chloro-2-(3-{[3-(methylamino)propyl]amino}propyl)isonicotinamide bis(trifluoroacetate)]",210 to 212 °C,
"O=C(NCC12CC3CC(CC(C3)C1)C2)c1cc(CCCNCCCO)ncc1Cl [Example 1, N-(1-Adamantylmethyl)-5-chloro-2-{3-[(3-hydroxypropyl)-amino]propyl}isonicotinamide]",84 to 85 °C,
"O=C(NCC12CC3CC(CC(C3)C1)C2)c1cc(CCCNCCCO)cnc1Cl [Example 3, N-(1-Adamantylmethyl)-2-chloro-5-{3-[(3-hydroxypropyl)amino]propyl}nicotinamide]",105 to 107 °C,
"O=C(NCC12CC3CC(CC(C3)C1)C2)c1cc(OCCNCCCO)ncc1Cl [Example 12, N-(1-Adamantylmethyl)-5-chloro-2-{2-[(3-hydroxypropyl)amino]ethoxy}isonicotinamide, hydrochloride]",,79.4 nM
"CN(CCO)CCCc1cc(C(=O)NCC23CC4CC(CC(C4)C2)C3)c(Cl)cn1 [Example 26, N-(1-Adamantylmethyl)-5chloro-2-{3-[(2-hydroxyethyl)(methyl)amino]propyl}isonicotinamide dihydrochloride]",,15.8 nM
